Results on 16 molecules are retold here after article PMC3062745 (International journal for parasitology, 2011).

Where two headings read alike, the source gives them in different places.

For series [1], the target named is T1, Leishmania mexicana arginase (LmARG) (Leishmania mexicana, UniProt Q6TUJ5). As to the kind of experiment: Inhibitor profile of recombinant LmARG. In kind it is biochemical. The conditions noted are these: for inhibition of LmARG / selective inhibition: preference for LmARG over HsARGI / block of LmARG activity (in words): 40 mM compound; for inhibition of LmARG / block of LmARG activity (in words): 40 mM L-arginine substrate; for selective inhibition: preference for LmARG over HsARGI: 40 mM L-arginine, comparison of the two enzymes; for Type of Inhibition: Dixon plot analysis, or assumed where Ki was calculated from panel data; for inhibition: read-out: inhibition of LmARG; for Ki: Dixon plot analysis.

Series [2] deals with T2, human ARGI (HsARGI) (Homo sapiens, UniProt P05089).
T2 sequence (P05089 1-322): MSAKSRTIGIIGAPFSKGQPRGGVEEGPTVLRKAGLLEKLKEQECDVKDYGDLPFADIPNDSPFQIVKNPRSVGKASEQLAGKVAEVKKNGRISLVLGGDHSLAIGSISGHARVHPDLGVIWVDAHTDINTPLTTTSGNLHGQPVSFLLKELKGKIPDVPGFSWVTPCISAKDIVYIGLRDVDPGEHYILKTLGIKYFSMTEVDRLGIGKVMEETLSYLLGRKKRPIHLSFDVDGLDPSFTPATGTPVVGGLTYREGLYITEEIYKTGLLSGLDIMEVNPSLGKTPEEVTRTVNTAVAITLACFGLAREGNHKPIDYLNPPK
In words: Inhibitor profile of recombinant HsARGI. The format is biochemical. The conditions noted are these: for inhibition of HsARGI / selective inhibition: preference for HsARGI over LmARG / block of HsARGI activity (in words): 40 mM compound; for inhibition of HsARGI / block of HsARGI activity (in words): 40 mM L-arginine substrate; for selective inhibition: preference for HsARGI over LmARG: 40 mM L-arginine, comparison of the two enzymes; for inhibition at 40000 µM: read-out: inhibition of HsARGI.

The test system of a further series is N=C(N)NCCC[C@H](N)C(=O)O. As to the kind of experiment: purified protein, by the assay type. The conditions noted are these: other: non-linear regression, L-arginine 7.8 – 50 mM; pH 9.5; 37.0 °C.
Series [3] addresses T1, Leishmania mexicana arginase (LmARG). In words: LmARG kinetic parameters and substrate specificity. The conditions noted are these: 50 mM, no L-arginine, 30 min; data not shown.
The target of series [4] is T2, human ARGI (HsARGI). As to the kind of experiment: HsARGI kinetic parameters and substrate specificity. The format is biochemical. The conditions noted are these: 50 mM, no L-arginine, 30 min.
Series [5] deals with intact L. major promastigotes. The conditions noted are these: ref Kropf et al., 2005; cited from earlier work.
In series [6] the test system is Leishmania mexicana promastigotes. As to the kind of experiment: Parasite proliferation assay. The conditions noted are these: read-out: EC50 (concentration that inhibited growth by 50%); L. mexicana promastigotes, 5 days, alamarBlue; data not shown. In kind it is cell-based. Background: Resazurin is reduced to fluorescent resorufin, in cell work by metabolically active cells.

The subject of the next series is L. major promastigotes. The conditions noted are these: read-out: EC50 against L. major promastigotes; ref Reguera et al., 2009; cited from earlier work.
The target of series [7] is T1, Leishmania mexicana arginase (LmARG). The format is biochemical. The conditions noted are these: co-activation with manganese and zinc; data not shown.

In general, Km refers to the substrate concentration at which the rate is half of its maximum. The term inhibition denotes the relative decrease from the control value, in per cent. By Ki is commonly meant a dissociation constant, usually derived from enzyme kinetics or from competition with a known ligand.

On to `OB(O)O` [boric acid], for which the “inhibition of LmARG” value in [1] is greater than 50%. Besides, on human ARGI (HsARGI) [2], the “inhibition of HsARGI” value is greater than 50% and the “selective inhibition: preference for HsARGI over LmARG” value (“selective inhibition … over LmARG” below) is “preferentially inhibited the HsARGI activity”.
Take “Leishmania mexicana arginase (LmARG) (Leishmania mexicana)”: the Km in the series with N=C(N)NCCC[C@H](N)C(=O)O came to 25 ± 4 mM.
`NC(CCS)C(=O)O` (racemic) [DL-homocysteine]: in series [1], the “inhibition of LmARG” value is on record as greater than 50% and the “selective inhibition: preference for LmARG over HsARGI” value (“selective inhibition … over HsARGI” for short) was “greater potency toward LmARG”.
As to `NC(N)=NCCC[C@@H](N)C(=O)O` [D-arginine], the “activity as substrate of LmARG” value in series [3] is “did not recognize”. Moreover, on human ARGI (HsARGI) [4], the “activity as substrate of HsARGI” value was “no activity”.
As to `N=C(NO)NCC[C@H](N)C(=O)O` [nor-NOHA, N^ω-hydroxy-nor-L-arginine], the “inhibition of conversion of arginine to ornithine by intact promastigotes” value in series [5] is “does not inhibit”. In series [1], the “block of LmARG activity (in words)” value is on record as “completely blocked”, the “Type of Inhibition” value is reported as “Competitive” and the inhibition is greater than 50%. In addition, at human ARGI (HsARGI) [2], the “block of HsARGI activity (in words)” value was “completely blocked” and the inhibition at 40000 µM is greater than 50%.
`Nc1nc2nc(N)[nH]c2c(=O)[nH]1` [8-aminoguanine]: in [1], the “selective inhibition … over HsARGI” value is reported as “greater potency toward LmARG”, the “Type of Inhibition” value is reported as “Uncompetitive” and the inhibition was greater than 50%. Also, the Ki in series [1] (Ki vs. LmARG) is less than 2000 µM. Further, the “selective inhibition … over LmARG” value at human ARGI (HsARGI) [2] is on record as “preferentially inhibited the HsARGI activity”.
As to `N[C@@H](CSCCB(O)O)C(=O)O` [BEC, S-(2-boronoethyl)-L-cysteine], in [1], the “block of LmARG activity (in words)” value was “completely blocked”, the “Type of Inhibition” value is “Competitive” and the inhibition was greater than 50%. Besides, in series [1] (Ki vs. LmARG), the Ki was roughly 10 µM. In addition, at human ARGI (HsARGI) [2], the Ki was found to be 14 µM and the “block of HsARGI activity (in words)” value is recorded as “completely blocked”.
Turning to `CC(C)C[C@H](N)C(=O)O` [L-leucine], at human ARGI (HsARGI) [2], the “selective inhibition … over LmARG” value was “preferentially inhibited the HsARGI activity” and the inhibition at 40000 µM is greater than 50%.
As to `N=C(NO)NCCC[C@H](N)C(=O)O` [NOHA, N^ω-hydroxy-L-arginine], the EC50 in series [6] was 6000 µM. For the same molecule, the EC50 in the series with L. major promastigotes is 40 µM. In series [1], the “block of LmARG activity (in words)” value is reported as “completely blocked”, the “inhibition of LmARG” value is greater than 50% and the “Type of Inhibition” value is “Competitive”. Further, in series [1] (read-out: Ki vs. LmARG), the Ki turned out to be 85 µM. For the same molecule, at human ARGI (HsARGI) [2], the “block of HsARGI activity (in words)” value is “completely blocked” and the “inhibition of HsARGI” value is recorded as greater than 50%.
Consider `N[C@@H](CCCCB(O)O)C(=O)O` [ABH, 2(S)-amino-6-boronohexanoic acid], for which, in series [1], the “block of LmARG activity (in words)” value is “completely blocked”, the “Type of Inhibition” value was “Competitive” and the inhibition is greater than 50%. In addition, the Ki in series [1] (Ki vs. LmARG) is 1.3 µM. Moreover, on human ARGI (HsARGI) [2], the Ki came to 3.5 µM, the “block of HsARGI activity (in words)” value is “completely blocked” and the inhibition at 40000 µM was greater than 50%.
For `[Cl-].[Cl-].[Zn+2]` [zinc, ZnCl2], the “LmARG activity on co-activation with manganese” value in series [7] is on record as “reduced activity to zero”.
On to `N[C@@H](CCC(=O)N[C@H]1CSSC[C@H](NC(=O)CC[C@H](N)C(=O)O)C(=O)NCC(=O)NCCCNCCCCNC(=O)CNC1=O)C(=O)O` [trypanothione], for which, in series [1], the “inhibition of LmARG” value is greater than 50% and the “Type of Inhibition” value was “Uncompetitive”. In [1] (read-out: Ki vs. LmARG), the Ki was less than 5000 µM. Also, on human ARGI (HsARGI) [2], the “inhibition of HsARGI” value is given as greater than 50% and the “selective inhibition … over LmARG” value is reported as “preferentially inhibited the HsARGI activity”.
Take `NCCCC[C@H](N)C(=O)O` [L-lysine]: at human ARGI (HsARGI) [2], the “selective inhibition … over LmARG” value is “preferentially inhibited the HsARGI activity” and the inhibition at 40000 µM is greater than 50%.
As for `NCCC[C@H](N)C(=O)O` [L-ornithine], on human ARGI (HsARGI) [2], the “selective inhibition … over LmARG” value is listed as “preferentially inhibited the HsARGI activity” and the inhibition at 40000 µM was greater than 50%.
Turning to `N[C@@H](CS)C(=O)O` [L-cysteine], in [1], the “selective inhibition … over HsARGI” value is listed as “greater potency toward LmARG”, the “Type of Inhibition” value was “Competitive” and the inhibition was greater than 50%. The Ki in [1] (Ki vs. LmARG) is 11000 µM. Besides, the Ki at human ARGI (HsARGI) [2] is greater than 30000 µM.
For `NCCCCN=C(N)N` [agmatine], the “activity as substrate of LmARG” value in series [3] is “did not recognize”. Also, the “activity as substrate of HsARGI” value on human ARGI (HsARGI) [4] is listed as “no activity”.
